Laboratory results from patent US11034839B2, “Compounds, linked with haptens, for the detection of senescent cells” (THE UNIVERSITY OF MANCHESTER, priority 2016, dated 2021).

Key:
[1] = tested on: senescent cells in irradiated human laryngeal tumors, palbociclib treated human melanoma cell xenografts, mouse bleomycin-injected lung, mouse lung adenomas; experiment: Streptavidin-HRP/DAB labeling of tissue sections; settings: FIG. 5ai-di in comparison to FIGS. 2,3,4
Description: In the inventive example 2, the derivative LG13 was used to detect senescent cells in tissue sections using streptavidin-horse radish peroxidase (HRP)/DAB labeling.
Tissue sections were obtained from paraffin embedded, formalin fixed: (a) irradiated human laryngeal tumors, (b) palbociclib treated human melanoma cell xenografts, (c) mouse bleomycin-injected lung and (d) mouse lung adenomas. Subsequently, they were immobilized on glass microscopy slides by standard procedures and processed as follows: • a. Deparaffinization for 5 min at room temperature in xylene • b. Gradual rehydration in solutions of descending concentration of ethanol (100%, 80%, 70%, 50% v/v) and finally in TBS (Tris-buffered saline) or PBS (Phosphate-buffered saline) solution. • c. Blocking of endogenous peroxidase activity with 3% H2O2 for 10 min. • d. Gradual dehydration of biopsy material in 50% (v/v) ethanol followed by 70% (v/v) ethanol for 5 min each step. • e. Application of the new compound LG13, linked with biotin, diluted in ethanol and filtered, on biopsy material for 10 min. • f. Quick wash in 50% (v/v) ethanol. • g. Transfer and wash in TBS or PBS solution. • h. Incubation in streptavidin-HRP (horse radish peroxidase) conjugated (dilution 1/200), for ½ hr at room temperature. • i. Quick wash in TBS or PBS solution. • j. […]

senescent cells = experiment: Flow cytometry analysis for detection of senescent cells in cell culture; format: cell-based; settings: HIC assay adapted to flow cytometry, FIG. 10
Protocol: In inventive example 7 the derivative LG13 was used to detect lipofuscin rich cells in cell aspirations or cell cultures by flow cytometry analysis.
• 1. Cells harvested from culture are fixed in EtOH 70% at 4° C. • 2. Centrifuge at 1200 rpm for 5 min at RT. • 3. Wash ×1 in 5 ml PBS at RT. • 4. Centrifuge at 1200 rpm for 5 min at RT. • 5. Incubate in 0.1% Triton X/PBS for 15 min at RT. • 6. Centrifuge at 1200 rpm for 5 min at RT. • 7. Wash ×1 EtOH 50% for 5 min at RT • 8. Centrifuge at 1200 rpm for 5 min at RT. • 9. Wash ×1 EtOH 70% for 5 min at RT. • 10. Centrifuge at 1200 rpm for 5 min at RT. • 11. Cover cell pellet with compound LG13 and incubate for 8 min at RT. • 12. Centrifuge at 1200 rpm for 5 min at RT. • 13. Wash with EtOH 50% and centrifuge at 1200 rpm for 5 min at RT, repeat ×3. • 14. Wash ×1 in PBS. • 15. Centrifuge at 1200 rpm for 5 min at RT. • 16. Incubate with the primary anti-biotin antibody diluted 1:400 in PBS ([Hyb-8] ab201341, Abcam) for 60 min at 37° C. • 17. Wash ×1 with PBS. • 18. Centrifuge at 1200 rpm for 5 min at RT. • 19. Incubate with secondary antibody, goat anti-mouse 568 Alexa Fluor conjugated, diluted 1:100 in PBS [Thermo Fisher Scientific (Cat no: A-11004)] for 20-30 min in dark and on ice. • 20. Wash ×1 with PBS. • 21. Centrifuge at 1200 rpm for 5 min at RT.

## CC1(COC(=O)CCCC[C@H]2SC[C@H]3NC(=O)N[C@H]32)Nc2cccc3c(/N=N/c4ccc(/N=N/c5ccccc5)c5ccccc45)ccc(c23)N1 (stereo partly drawn) [LG13, (2-methyl-6-((E)-(4-((E)-phenyldiazenyl)naphthalen-1-yl)diazenyl)-2,3-dihydro-1H-perimidin-2-yl)methyl 5-((3aR,4R,6aS)-2-oxohexahydro-1H-thieno[3,4-d]imidazol-4-yl)pentanoate]
[1]
  recognition of senescent cells compared to histochemical staining: makes easier the recognition of senescent cells
Senescent cells
  detection of senescent cells by flow cytometry: detects robustly senescent cells
